Assay results taken from US12030879B2, “Sulfonyl acetamides as NLRP3 inhibitors” (Inflazome Limited, priority 2018, dated 2024).

These molecules were tested against T1, NLRP3 (Homo sapiens, UniProt Q96P20) (assay: THP-1 cells pyroptosis assay). Conditions: LPS 1 μg/ml, compound 3 hrs, nigericin 5 μM 1 hr, resazurin readout.
T1 construct: Seed THP-1 cells (25,000 cells/well) containing 1.0 μg/ml LPS in 40 μl of RPMI medium; host or cells: THP-1 cells
Type: cell-based
Procedure, shortened: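 LPS-primed (1 μg/ml) THP-1 cells in serum-free RPMI were treated 3 h with compound (8-point half-log, top 10 μM; 0.1% DMSO), then with 5 μM nigericin for 1 h at 37°C. Viability was read by 100 μM resazurin (ex 560/em 590 nm) after 1–2 h. IC50 came from 4-parameter nonlinear regression.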

T1 sequence (Q96P20 whole entry): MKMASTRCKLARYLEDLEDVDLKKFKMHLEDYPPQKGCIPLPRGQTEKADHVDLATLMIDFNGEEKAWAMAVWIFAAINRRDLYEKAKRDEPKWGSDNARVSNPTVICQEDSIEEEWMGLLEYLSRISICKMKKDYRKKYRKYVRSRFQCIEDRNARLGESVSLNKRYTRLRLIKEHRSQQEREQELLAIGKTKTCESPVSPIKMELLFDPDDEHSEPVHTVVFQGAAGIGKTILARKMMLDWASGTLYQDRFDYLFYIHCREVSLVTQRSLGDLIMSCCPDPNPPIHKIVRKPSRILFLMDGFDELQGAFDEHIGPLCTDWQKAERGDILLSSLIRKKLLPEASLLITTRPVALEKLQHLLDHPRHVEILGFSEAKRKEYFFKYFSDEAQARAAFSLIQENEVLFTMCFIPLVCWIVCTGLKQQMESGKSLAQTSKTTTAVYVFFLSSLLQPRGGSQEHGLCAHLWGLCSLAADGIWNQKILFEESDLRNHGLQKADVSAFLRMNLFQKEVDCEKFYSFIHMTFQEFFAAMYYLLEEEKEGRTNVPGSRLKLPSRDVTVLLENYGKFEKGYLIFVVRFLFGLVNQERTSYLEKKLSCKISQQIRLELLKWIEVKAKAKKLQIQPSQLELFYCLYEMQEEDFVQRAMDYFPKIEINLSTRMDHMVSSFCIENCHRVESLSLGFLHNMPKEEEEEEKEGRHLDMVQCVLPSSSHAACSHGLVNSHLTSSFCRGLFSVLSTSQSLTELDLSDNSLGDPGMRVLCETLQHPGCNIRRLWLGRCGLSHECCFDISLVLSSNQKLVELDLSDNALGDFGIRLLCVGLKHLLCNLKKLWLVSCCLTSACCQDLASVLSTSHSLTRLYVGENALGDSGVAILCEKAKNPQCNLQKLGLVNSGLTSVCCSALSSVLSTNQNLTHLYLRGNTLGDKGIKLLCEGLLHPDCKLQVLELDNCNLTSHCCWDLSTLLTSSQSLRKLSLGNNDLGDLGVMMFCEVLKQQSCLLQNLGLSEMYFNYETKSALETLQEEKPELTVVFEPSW

Row | IC50 [nM] | Compound
1 | ≤ 5000 | COc1cc(-c2cc(F)cc(C(C)C)c2CC(=O)NS(=O)(=O)c2ccccc2)ccn1 [Example 111, 2-(4-Fluoro-2-isopropyl-6-(2-methoxypyridin-4-yl)phenyl)-N-(phenylsulfonyl)acetamide]
2 | ≤ 5000 | COc1cc(-c2cc(F)cc(C(C)C)c2CC(=O)NS(=O)(=O)c2ccc(C)cc2)ccn1 [Example 112, 2-(4-Fluoro-2-isopropyl-6-(2-methoxypyridin-4-yl)phenyl)-N-tosylacetamide]
3 | ≤ 1000 | COc1cc(-c2cc(F)cc(C(C)C)c2CC(=O)NS(=O)(=O)c2c(F)cc(C)cc2F)ccn1 [Example 113]
4 | ≤ 1000 | COc1cc(-c2cc(F)cc(C(C)C)c2CC(=O)NS(=O)(=O)CC2(C#N)CCCCC2)ccn1 [Example 114]
5 | ≤ 1000 | COc1cc(-c2cc(F)cc(C(C)C)c2CC(=O)NS(=O)(=O)c2cccc3ccoc23)ccn1 [Example 115]
6 | ≤ 1000 | COc1cc(-c2cc(F)cc(C(C)C)c2CC(=O)NS(=O)(=O)c2cc3ccccc3o2)ccn1 [Example 116]
7 | ≤ 500 | CCc1cccc(S(=O)(=O)NC(=O)Cc2c(-c3ccnc(OC)c3)cc(F)cc2C(C)C)c1 [Example 117]
8 | ≤ 1000 | COc1cc(-c2cc(F)cc(C(C)C)c2CC(=O)NS(=O)(=O)c2ccc3c(c2)CCCO3)ccn1 [Example 118]
9 | ≤ 1000 | COc1cccc(S(=O)(=O)NC(=O)Cc2c(-c3ccnc(OC)c3)cc(F)cc2C(C)C)c1 [Example 119]
10 | ≤ 1000 | COc1cc(-c2cc(F)cc(C(C)C)c2CC(=O)NS(=O)(=O)c2ccc(C)cc2F)ccn1 [Example 120]
11 | ≤ 500 | COc1cc(-c2cc(F)cc(C(C)C)c2CC(=O)NS(=O)(=O)c2cc(C)c(C)s2)ccn1 [Example 121]
12 | ≤ 500 | COc1cc(-c2cc(F)cc(C(C)C)c2CC(=O)NS(=O)(=O)c2ccc(C)c(C)c2)ccn1 [Example 122]
13 | ≤ 500 | COc1cc(-c2cc(F)cc(C(C)C)c2CC(=O)NS(=O)(=O)c2ccc3c(c2)CCC3)ccn1 [Example 123]
14 | ≤ 500 | COc1cc(-c2cc(F)cc(C(C)C)c2CC(=O)NS(=O)(=O)c2ccc3c(c2)COC3)ccn1 [Example 124]
15 | ≤ 500 | COc1cc(-c2cc(F)cc(C(C)C)c2CC(=O)NS(=O)(=O)c2ccc(C)c(F)c2)ccn1 [Example 125]
16 | ≤ 500 | COc1cc(-c2cc(F)cc(C(C)C)c2CC(=O)NS(=O)(=O)c2ccc3ccccc3c2)ccn1 [Example 126]
17 | ≤ 5000 | COc1cc(-c2cc(F)cc(C(C)C)c2CC(=O)NS(=O)(=O)c2ccc(-c3cnco3)s2)ccn1 [Example 127]
18 | ≤ 1000 | COc1cc(-c2cc(F)cc(C(C)C)c2CC(=O)NS(=O)(=O)c2cc(Br)ccc2C)ccn1 [Example 128]
19 | ≤ 1000 | COc1cc(-c2cc(F)cc(C(C)C)c2CC(=O)NS(=O)(=O)c2ccc(Br)cc2C)ccn1 [Example 129]
20 | ≤ 5000 | COc1cc(-c2cc(F)cc(C(C)C)c2CC(=O)NS(=O)(=O)c2ccc(CCNC(C)=O)cc2)ccn1 [Example 130]
21 | ≤ 5000 | COc1cc(-c2cc(F)cc(C(C)C)c2CC(=O)NS(=O)(=O)c2nn(C)/c(=N\C(C)=O)s2)ccn1 [Example 131]
22 | ≤ 5000 | COc1cc(-c2cc(F)cc(C(C)C)c2CC(=O)NS(=O)(=O)c2ccc(/C(C)=N\O)cc2)ccn1 [Example 132]
23 | ≤ 5000 | COc1cc(-c2cc(F)cc(C(C)C)c2CC(=O)NS(=O)(=O)c2cccc(CNC(C)=O)c2)ccn1 [Example 133]

Row | IC50 [nM] | Compound
24 | ≤ 500 | COc1cc(-c2cc(F)cc(C(C)C)c2CC(=O)NS(=O)(=O)c2ccc(C(C)(C)F)cc2C)ccn1 [Example 134]
25 | ≤ 5000 | COc1cc(-c2cc(F)cc(C(C)C)c2CC(=O)NS(=O)(=O)c2ccc(Cl)c(F)c2)ccn1 [Example 135]
26 | ≤ 1000 | COc1cc(-c2cc(F)cc(C(C)C)c2CC(=O)NS(=O)(=O)c2ccc(Cl)cc2C)ccn1 [Example 136]
27 | ≤ 10000 | COc1cc(-c2cc(F)cc(C(C)C)c2CC(=O)NS(=O)(=O)c2ccc(C(C)(C)O)cn2)ccn1 [Example 137]
28 | ≤ 10000 | COc1cc(-c2cc(F)cc(C(C)C)c2CC(=O)NS(=O)(=O)c2nnc(NC(C)=O)s2)ccn1 [Example 138]
29 | ≤ 500 | COc1cc(-c2cc(F)cc(C(C)C)c2CC(=O)NS(=O)(=O)c2cc(F)c(Br)cc2C)ccn1 [Example 139]
30 | ≤ 5000 | COc1cc(-c2cc(F)cc(C(C)C)c2CC(=O)NS(=O)(=O)c2ccc(Br)cc2C(F)(F)F)ccn1 [Example 140]
31 | ≤ 1000 | COc1cc(-c2cc(F)cc(C(C)C)c2CC(=O)NS(=O)(=O)c2ccc(Cl)c(C(F)(F)F)c2)ccn1 [Example 141]
32 | ≤ 1000 | CC(C)c1cc(F)cc(-c2cccnc2)c1CC(=O)NS(=O)(=O)c1cnc(C(C)(C)O)s1 [Example 142]
33 | ≤ 1000 | CC(C)c1cc(F)cc(-c2cccnc2)c1CC(=O)NS(=O)(=O)c1ncc(C(C)(C)O)s1 [Example 143]
34 | ≤ 500 | COc1cc(-c2cc(F)cc(C(C)C)c2CC(=O)NS(=O)(=O)c2cc(C(C)(C)OC)cs2)ccn1 [Example 144]
35 | ≤ 500 | COc1ccc(-c2cc(F)cc(C(C)C)c2CC(=O)NS(=O)(=O)c2cc(C(C)(C)O)cs2)cn1 [Example 145]
36 | ≤ 10000 | COc1cc(-c2cc(F)cc(C(C)C)c2CC(=O)NS(=O)(=O)c2c(C)cc(N(C)C)cc2C)ccn1 [Example 146]
37 | ≤ 5000 | COc1cc(-c2c(CC(=O)NS(=O)(=O)c3cc(C(C)(C)O)cs3)c(C(C)C)nn2C)ccn1 [Example 147]
38 | ≤ 5000 | COc1cncc(-c2cc(F)cc(C(C)C)c2CC(=O)NS(=O)(=O)c2cc(C(C)(C)O)cs2)c1 [Example 148]
39 | ≤ 500 | COc1cc(-c2cc(F)cc(C(C)C)c2CC(=O)NS(=O)(=O)c2cc(C(C)(C)O)c(F)cc2F)ccn1 [Example 149]
40 | ≤ 500 | C=C(C)c1csc(S(=O)(=O)NC(=O)Cc2c(-c3ccnc(OC)c3)cc(F)cc2C(C)C)c1 [Example 150]
41 | ≤ 500 | COc1cc(-c2cc(F)cc(C(C)C)c2CC(=O)NS(=O)(=O)c2ccc(C3CC3)cc2C)ccn1 [Example 151]
42 | ≤ 5000 | COc1cc(-c2cc(F)cc(C(C)C)c2CC(=O)NS(=O)(=O)c2c(C)nn(C(C)C)c2C)ccn1 [Example 152]
43 | ≤ 5000 | COc1cc(-c2cc(F)cc(C(C)C)c2CC(=O)NS(=O)(=O)c2cc(N(C)C)ccc2C)ccn1 [Example 153]
44 | ≤ 500 | C=C(C)c1csc(S(=O)(=O)NC(=O)Cc2c(C(C)C)nn(C)c2-c2ccnc(OC)c2)c1 [Example 154]
45 | ≤ 5000 | CNc1cc(C)c(S(=O)(=O)NC(=O)Cc2c(-c3ccnc(OC)c3)cc(F)cc2C(C)C)cc1C [Example 155]
46 | ≤ 500 | COc1cc(-c2cc(F)cc(C(C)C)c2CC(=O)NS(=O)(=O)c2cc(C(C)C)c(F)cc2F)ccn1 [Example 156]

Row | IC50 [nM] | Compound
47 | ≤ 500 | COc1cc(-c2cc(F)cc(C(C)C)c2CC(=O)NS(=O)(=O)c2ccc(C(C)C)cc2C)ccn1 [Example 157]
48 | ≤ 5000 | CC(C)c1cc(F)cc(-c2ccnc(O)c2)c1CC(=O)NS(=O)(=O)c1cc(C(C)(C)O)cs1 [Example 158]
49 | ≤ 500 | COc1cc(-c2cc(F)cc(C(C)C)c2CC(=O)NS(=O)(=O)c2cc(C(C)(C)O)c(C)s2)ccn1 [Example 159]
50 | ≤ 5000 | COc1cc(-c2cc(F)cc(C(C)C)c2CC(=O)NS(=O)(=O)c2cc(C(C)(C)O)nn2C)ccn1 [Example 160]
51 | ≤ 5000 | COc1cc(-c2cc(F)cc(C(C)C)c2CC(=O)NS(=O)(=O)c2c(Cl)cc(N(C)C)cc2Cl)ccn1 [Example 161]
52 | ≤ 5000 | COc1cc(-c2cc(F)cc(C(C)C)c2CC(=O)NS(=O)(=O)c2cnc(N(C)C)cc2C)ccn1 [Example 162]
53 | ≤ 10000 | C=C(C)c1csc(S(=O)(=O)NC(=O)Cc2c(-c3ccnc(OC)c3)nn(C)c2C(C)C)c1 [Example 163]
54 | ≤ 500 | C=C(C)c1ccc(S(=O)(=O)NC(=O)Cc2c(-c3ccnc(OC)c3)cc(F)cc2C(C)C)c(C)c1 [Example 164]
55 | ≤ 500 | C=C(C)c1cc(S(=O)(=O)NC(=O)Cc2c(-c3ccnc(OC)c3)cc(F)cc2C(C)C)c(F)cc1F [Example 165]
56 | ≤ 500 | COc1cc(-c2cc(F)cc(C(C)C)c2CC(=O)NS(=O)(=O)c2cc(Br)c(F)cc2F)ccn1 [Example 166]
57 | ≤ 5000 | COc1cc(-c2cc(F)cc(C(C)C)c2CC(=O)NS(=O)(=O)c2cc(C(C)(C)O)ccc2C)ccn1 [Example 167]
58 | ≤ 5000 | COc1cc(-c2cc(F)cc(C(C)C)c2CC(=O)NS(=O)(=O)c2c(C)nn(CC(F)(F)F)c2C)ccn1 [Example 168]
59 | ≤ 5000 | COc1cc(-c2cc(F)cc(C(C)C)c2CC(=O)NS(=O)(=O)c2cn(CC(F)F)nc2C)ccn1 [Example 169]
60 | ≤ 500 | COc1cc(-c2cc(F)cc(C(C)C)c2CC(=O)NS(=O)(=O)c2cc(C(C)(C)O)ccn2)ccn1 [Example 170]
61 | ≤ 5000 | COc1cc(-c2cc(F)cc(C(C)C)c2CC(=O)NS(=O)(=O)c2ccc(C(C)(C)O)nc2)ccn1 [Example 171]
62 | ≤ 5000 | COc1cc(-c2cc(F)cc(C(C)C)c2CC(=O)NS(=O)(=O)c2c(C)nn(CC(C)C)c2C)ccn1 [Example 172]
63 | ≤ 500 | COc1cc(-c2cc(F)cc(C(C)C)c2CC(=O)NS(=O)(=O)c2cn(C(C)C)nc2C)ccn1 [Example 173]
64 | ≤ 500 | COc1cc(-c2cc(F)cc(C(C)C)c2CC(=O)NS(=O)(=O)c2cc(C(=O)N(C)C)c(C)s2)ccn1 [Example 174]
65 | ≤ 5000 | COc1cc(-c2cc(F)cc(C(C)C)c2CC(=O)NS(=O)(=O)c2c(C)nn(CC(F)F)c2C)ccn1 [Example 175]
66 | ≤ 500 | COC(=O)c1cc(S(=O)(=O)NC(=O)Cc2c(-c3ccnc(OC)c3)cc(F)cc2C(C)C)sc1C [Example 176]
67 | ≤ 5000 | COc1cc(-c2cc(F)cc(C(C)C)c2CC(=O)NS(=O)(=O)c2ccc(CCN(C)C)cc2)ccn1 [Example 177]
68 | ≤ 1000 | COc1cc(-c2cc(F)cc(C(C)C)c2CC(=O)NS(=O)(=O)c2cc(Br)c(Cl)cc2C)ccn1 [Example 178]
